Reference: PubChem BioAssay AID248 (DTP/NCI, 2004)
“And” between values parts separate entries of the source, which are not always exact repeats. Equal entries are not always repeated. Inconclusive results and toxic doses are left out. Rule as the data show it: active = T/C of 150% or more; inactive = T/C below 125%.

Test system: L1210 leukemia ip in BDF1 mice, survival T/C
Assay: NCI In Vivo Anticancer Drug Screen. Data for tumor model L1210 Leukemia (intraperitoneal) in B6D2F1 (BDF1) mice
Details: endpoint: mean survival time, higher = longer survival
In short: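 In this screen, tumor-bearing mice given compound are compared to those given vehicle, and their survival values are reported as a treated-to-control quotient.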

[1] = dose: 50.0 mg/kg/injection, schedule: Q01DX001 (ip), vehicle: saline
[2] = dose: 100.0 mg/kg/injection, schedule: Q01DX001 (ip), vehicle: saline
[3] = dose: 200.0 mg/kg/injection, schedule: Q01DX001 (ip), vehicle: saline
[4] = dose: 400.0 mg/kg/injection, schedule: Q01DX001 (ip), vehicle: saline
[5] = dose: 100.0 mg/kg/injection, schedule: Q04DX003 (ip), vehicle: Klucel (hydroxypropylcellulose) (HPC)
[6] = dose: 200.0 mg/kg/injection, schedule: Q04DX003 (ip), vehicle: Klucel (hydroxypropylcellulose) (HPC)
[7] = dose: 400.0 mg/kg/injection, schedule: Q04DX003 (ip), vehicle: Klucel (hydroxypropylcellulose) (HPC)
[8] = dose: 100.0 mg/kg/injection, schedule: Q01DX001 (ip), vehicle: Klucel (hydroxypropylcellulose) (HPC)
[9] = dose: 200.0 mg/kg/injection, schedule: Q01DX001 (ip), vehicle: Klucel (hydroxypropylcellulose) (HPC)
[10] = dose: 100.0 mg/kg/injection, schedule: Q01DX009 (ip), vehicle: saline with Tween-80
[11] = dose: 200.0 mg/kg/injection, schedule: Q01DX009 (ip), vehicle: saline with Tween-80
[12] = dose: 100.0 mg/kg/injection, schedule: Q01DX009 (ip), vehicle: Klucel (hydroxypropylcellulose) (HPC)
[13] = dose: 100.0 mg/kg/injection, schedule: Q04DX002 (ip), vehicle: Klucel (hydroxypropylcellulose) (HPC)
[14] = dose: 200.0 mg/kg/injection, schedule: Q01DX009 (ip), vehicle: Klucel (hydroxypropylcellulose) (HPC)
[15] = dose: 200.0 mg/kg/injection, schedule: Q04DX002 (ip), vehicle: Klucel (hydroxypropylcellulose) (HPC)
[16] = dose: 400.0 mg/kg/injection, schedule: Q01DX009 (ip), vehicle: Klucel (hydroxypropylcellulose) (HPC)
[17] = dose: 100.0 mg/kg/injection, schedule: Q04DX003 (ip), vehicle: saline
[18] = dose: 200.0 mg/kg/injection, schedule: Q04DX003 (ip), vehicle: saline
[19] = dose: 400.0 mg/kg/injection, schedule: Q04DX003 (ip), vehicle: saline
[20] = dose: 25.0 mg/kg/injection, schedule: Q04DX002 (ip), vehicle: saline with Tween-80
[21] = dose: 75.0 mg/kg/injection, schedule: Q01DX001 (ip), vehicle: carboxymethylcellulose (CMC)
[22] = dose: 150.0 mg/kg/injection, schedule: Q01DX001 (ip), vehicle: carboxymethylcellulose (CMC)
[23] = dose: 100.0 mg/kg/injection, schedule: Q01DX001 (ip), vehicle: carboxymethylcellulose (CMC)
[24] = dose: 200.0 mg/kg/injection, schedule: Q01DX001 (ip), vehicle: carboxymethylcellulose (CMC)

Measured: T/C

N/N=C(\N)NC(=O)c1ccccc1
inactive: dose: 15.0 mg/kg/injection, schedule: Q01DX Z (ip), vehicle: saline 103 % of control | dose: 30.0 mg/kg/injection, schedule: Q01DX Z (ip), vehicle: saline 97 % of control | dose: 60.0 mg/kg/injection, schedule: Q01DX Z (ip), vehicle: saline 94 % of control | dose: 120.0 mg/kg/injection, schedule: Q01DX Z (ip), vehicle: saline 105 % of control | dose: 240.0 mg/kg/injection, schedule: Q01DX Z (oral), vehicle: saline 108 % of control | dose: 480.0 mg/kg/injection, schedule: Q01DX Z (oral), vehicle: saline 95 % of control | dose: 960.0 mg/kg/injection, schedule: Q01DX Z (oral), vehicle: saline 103 % of control | dose: 1920.0 mg/kg/injection, schedule: Q01DX Z (oral), vehicle: saline 101 % of control

CCCCCCCCCCC[As](=O)(O)CCCCCCCCCCC
inactive: [1] 103 % of control | [2] 97 % of control | [3] 103 % of control | [4] 101 % of control

CCOC(=O)C1C2OC(=O)C(C(=O)C2C(C2CC=CCC2)N(CCCl)CCCl)C1c1ccc(OC(C)=O)cc1 (centres undefined)
inactive: [5] 101 % of control | [6] 97 % of control | [7] 98 % of control

CCOC(=O)c1cnc(C)nc1Nc1c(C)cccc1C
inactive: [8] 99 % of control | [9] 105 % of control | dose: 400.0 mg/kg/injection, schedule: Q01DX001 (ip), vehicle: Klucel (hydroxypropylcellulose) (HPC) 100 % of control

CC1CCCC2C(=O)CCC(C(C)(C)O)C12C (centres undefined)
inactive: [10] 91 % of control | dose: 100.0 mg/kg/injection, schedule: Q04DX003 (ip), vehicle: saline with Tween-80 92 % of control | [11] 95 % of control | dose: 200.0 mg/kg/injection, schedule: Q04DX003 (ip), vehicle: saline with Tween-80 92 % of control | dose: 400.0 mg/kg/injection, schedule: Q01DX009 (ip), vehicle: saline with Tween-80 93 % of control | dose: 400.0 mg/kg/injection, schedule: Q04DX003 (ip), vehicle: saline with Tween-80 92 % of control

O=[N+]([O-])c1ccc(/C=C/c2ccccn2)s1
inactive: [5] 96 % of control | dose: 100.0 mg/kg/injection, schedule: Q04DX003 (ip), vehicle: water 101 % of control | [6] 112 % of control | dose: 200.0 mg/kg/injection, schedule: Q04DX003 (ip), vehicle: water 98 % of control | [7] 96 % of control | dose: 400.0 mg/kg/injection, schedule: Q04DX003 (ip), vehicle: water 97 % of control

S=C(Nc1ccccc1)Nc1cccc2ccccc12
inactive: [1] 97 % of control | [2] 103 % of control | [12] 105 % of control | [13] 87 % of control | [3] 97 % of control | [14] 105 % of control | [15] 87 % of control | [4] 94 % of control | [16] 112 % of control

NC(CSS(=O)(=O)O)=NC1CCCC1
inactive: dose: 12.5 mg/kg/injection, schedule: Q01DX001 (ip), vehicle: carboxymethylcellulose (CMC) 107 % of control | dose: 25.0 mg/kg/injection, schedule: Q01DX001 (ip), vehicle: carboxymethylcellulose (CMC) 101 % of control | dose: 50.0 mg/kg/injection, schedule: Q01DX001 (ip), vehicle: carboxymethylcellulose (CMC) 102 % of control

COCc1ccc(COC)cc1
inactive: dose: 100.0 mg/kg/injection, schedule: Q01DX009 (ip), vehicle: saline 96 % of control | [17] 103 % of control | dose: 200.0 mg/kg/injection, schedule: Q01DX009 (ip), vehicle: saline 95 % of control | [18] 108 % of control | dose: 400.0 mg/kg/injection, schedule: Q01DX009 (ip), vehicle: saline 98 % of control | [19] 100 % of control

Cc1cccc[n+]1CC(=O)c1ccccc1
inactive: [17] 94 % of control

O=C(CNC(c1ccccc1)(c1ccccc1)c1ccccc1)OC(c1ccccc1)c1ccccc1
inactive: [10] 86 % of control | dose: 100.0 mg/kg/injection, schedule: Q04DX003 (ip), vehicle: saline sonified 106 % of control | [11] 89 % of control | dose: 200.0 mg/kg/injection, schedule: Q04DX003 (ip), vehicle: saline sonified 92 % of control | dose: 400.0 mg/kg/injection, schedule: Q04DX003 (ip), vehicle: saline sonified 97 % of control

O=C(OCC1OC(n2nnc3ccnc(Cl)c32)C(OC(=O)c2ccccc2)C1OC(=O)c1ccccc1)c1ccccc1 (centres undefined)
inactive: dose: 50.0 mg/kg/injection, schedule: Q01DX005 (ip), vehicle: saline with Tween-80 93 % of control | dose: 100.0 mg/kg/injection, schedule: Q01DX005 (ip), vehicle: saline with Tween-80 98 % of control | dose: 200.0 mg/kg/injection, schedule: Q01DX005 (ip), vehicle: saline with Tween-80 104 % of control

COC(=O)N/N=C/c1ccc(Cl)cc1Cl
inactive: dose: 6.25 mg/kg/injection, schedule: Q01DX009 (ip), vehicle: Klucel (hydroxypropylcellulose) (HPC) 94 % of control | dose: 12.5 mg/kg/injection, schedule: Q01DX009 (ip), vehicle: Klucel (hydroxypropylcellulose) (HPC) 101 % of control | dose: 25.0 mg/kg/injection, schedule: Q01DX009 (ip), vehicle: Klucel (hydroxypropylcellulose) (HPC) 94 % of control and 92 % of control

O=[N+]([O-])c1ccc(-c2ccccc2)c([As](=O)(O)O)c1
inactive: [20] 106 % of control

Cc1cnc(N[N+](=O)[O-])nc1-c1ccccc1O
inactive: [13] 96 % of control | [15] 108 % of control | dose: 400.0 mg/kg/injection, schedule: Q04DX002 (ip), vehicle: Klucel (hydroxypropylcellulose) (HPC) 105 % of control

CSc1ccc(NC(=O)Nc2cccc(O)c2)cc1
inactive: [12] 101 % of control | [5] 101 % of control | [14] 103 % of control | [6] 106 % of control | [16] 101 % of control | [7] 98 % of control

Cc1ccc2ccccc2[n+]1[O-]
inactive: dose: 25.0 mg/kg/injection, schedule: Q01DX009 (ip), vehicle: saline with Tween-80 100 % of control | [20] 93 % of control | dose: 50.0 mg/kg/injection, schedule: Q01DX009 (ip), vehicle: saline with Tween-80 96 % of control | dose: 50.0 mg/kg/injection, schedule: Q04DX002 (ip), vehicle: saline with Tween-80 104 % of control | [21] 94 % of control | [10] 96 % of control | dose: 100.0 mg/kg/injection, schedule: Q04DX002 (ip), vehicle: saline with Tween-80 96 % of control | [22] 96 % of control

CCCCCCCCCCCCCCCCSc1ccc2ccccc2c1
inactive: [5] 100 % of control | [6] 96 % of control | [7] 87 % of control

O=S(=O)(c1ccccc1)C1CC1c1ccc(Cl)cc1 (centres undefined)
inactive: [2] 97 % of control | [17] 104 % of control | [3] 92 % of control | [18] 96 % of control | [4] 98 % of control | [19] 96 % of control

CCOC(=O)CCCN(c1ccccc1C(=O)OC)S(=O)(=O)c1ccc(C)cc1
inactive: [23] 97 % of control | [24] 94 % of control | dose: 400.0 mg/kg/injection, schedule: Q01DX001 (ip), vehicle: carboxymethylcellulose (CMC) 103 % of control

O=C1C(Cl)=C(Nc2nc3ccccc3s2)C(=O)c2ccccc21
inactive: [8] 100 % of control | [9] 94 % of control

O=NN(C(=O)Nc1ccccc1)C1CCCCC1
inactive: dose: 18.0 mg/kg/injection, schedule: Q01DX001 (ip), vehicle: carboxymethylcellulose (CMC) 96 % of control | dose: 37.0 mg/kg/injection, schedule: Q01DX001 (ip), vehicle: carboxymethylcellulose (CMC) 94 % of control | [21] 98 % of control | [23] 105 % of control | [22] 102 % of control | [24] 104 % of control | dose: 250.0 mg/kg/injection, schedule: Q01DX001 (ip), vehicle: carboxymethylcellulose (CMC) 102 % of control
